Common to all, as to format: biochemical
The target of experiment [1] is T1, PIP4K2A (Homo sapiens, UniProt P48426).
T1 sequence (P48426 1-406): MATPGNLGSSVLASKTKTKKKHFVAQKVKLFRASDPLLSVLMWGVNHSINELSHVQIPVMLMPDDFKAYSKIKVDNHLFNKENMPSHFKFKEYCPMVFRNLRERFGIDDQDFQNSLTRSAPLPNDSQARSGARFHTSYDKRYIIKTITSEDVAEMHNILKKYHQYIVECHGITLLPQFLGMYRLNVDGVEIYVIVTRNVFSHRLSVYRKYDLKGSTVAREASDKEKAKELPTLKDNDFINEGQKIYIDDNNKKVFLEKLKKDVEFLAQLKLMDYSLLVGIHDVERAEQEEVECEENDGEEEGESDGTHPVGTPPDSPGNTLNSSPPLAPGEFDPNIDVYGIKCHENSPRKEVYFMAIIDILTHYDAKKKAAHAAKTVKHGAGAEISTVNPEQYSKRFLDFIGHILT
Put plainly: ADP-glo kinase assay PIP4K 2A (Table 3). More on the design: made in house; host or cells: E. coli. To be noted: compounds listed under IC50 bins. In short, it runs like this: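 Full-length PIP4K2A (4 nM in the mix) with 100 μM PI(5)P diC8 pre-incubated 15 min with compound in MOPS pH 7.2, 25 mM MgCl2; ATP added (60 μM solution), 1 h at RT. ADP formed read by ADP-Glo luminescence; 10-point curves versus DMSO controls fitted to IC50.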
In general terms: In ADP-Glo the light output rises with the ADP produced.

The target of experiment [2] is T1, PIP4K2A. Kind of experiment: Kinase Assay PIP4K2 A (Table 2). Further details: 4 nM PIP4K2A (full length protein, SignalChem); purchased SignalChem. Conditions: compounds listed under IC50 bins. The method in brief: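 Full-length PIP4K2A (4 nM in the added mix, with 100 μM PI(5)P diC8) pre-incubated 15 min at RT with compounds (10-point, 3-fold series) in 20 mM MOPS pH 7.2, 25 mM MgCl2, 0.005% Tween 20. ATP added from a 60 μM solution, 1 h at RT; ADP-Glo luminescence, IC50 fitted from % inhibition versus DMSO.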

In experiment [3] the target is T2, PIP4K2B (Homo sapiens, UniProt P78356).
T2 construct: made in house; host or cells: E. coli
T2 sequence (P78356 1-416): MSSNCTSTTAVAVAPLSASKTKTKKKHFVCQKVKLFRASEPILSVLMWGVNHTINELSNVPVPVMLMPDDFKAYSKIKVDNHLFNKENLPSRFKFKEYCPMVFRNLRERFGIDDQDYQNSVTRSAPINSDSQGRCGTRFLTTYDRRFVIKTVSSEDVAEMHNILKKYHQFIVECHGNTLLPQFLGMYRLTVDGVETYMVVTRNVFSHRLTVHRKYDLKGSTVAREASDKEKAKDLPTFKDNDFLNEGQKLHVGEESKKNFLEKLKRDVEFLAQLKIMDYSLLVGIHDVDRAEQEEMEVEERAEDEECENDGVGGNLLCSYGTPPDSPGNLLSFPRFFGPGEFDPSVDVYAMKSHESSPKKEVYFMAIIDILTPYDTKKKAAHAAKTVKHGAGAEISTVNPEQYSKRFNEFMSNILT
Kind of experiment: Trans-FI P kinase assay PIP4K2B (Table 4). To be noted: compounds listed under IC50 bins; read-out: Trans-FI P kinase assays: PIP4K2B IC50. The method in brief: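 Transcreener FI detection (Ex 584/Em 623) of GDP, converted via calibration curve, gives IC50 from residual activity versus log concentration (highest 4.8 μM). Reaction: 80 μM PI5P plus DOPE carrier, 100 μM GTP, 5 nM GST-tagged enzyme, pH 7.3 HEPES with MgCl2 and 5% DMSO, 2 h after 1 h enzyme-compound preincubation at 27° C.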

Take `CN(C)C(=O)c1ccc(-c2ccc(Nc3cncc(NC(=O)C4CC4c4ccccc4)c3)nc2)cc1` (stereo not drawn) [Example 138, N,N-dimethyl-4-(6-((5-(2-phenylcyclopropane-1-carboxamido)pyridin-3-yl)amino)pyridin-3-yl)benzamide]: the IC50 in experiment [1] was in the range of 1 to 10 nM; in experiment [2], 1 to 10 nM; in experiment [3], 10 to 100 nM.

With `CN(C)C(=O)c1ccc(-c2ccc(Nc3cncc(NC(=O)c4ccc(F)cc4)c3)nc2)cc1` [Example 139, 4-(6-((5-(4-fluorobenzamido)pyridin-3-yl)amino)pyridin-3-yl)-N,N-dimethylbenzamide], the IC50 in experiment [1], in experiment [2] and in experiment [3] was 10 to 100 nM throughout.

With `CN(C)C(=O)c1ccc(-c2ccc(Nc3cncc(NC(=O)c4cccc(F)c4)c3)nc2)cc1` [Example 140, 4-(6-((5-(3-fluorobenzamido)pyridin-3-yl)amino)pyridin-3-yl)-N,N-dimethylbenzamide], the IC50 in experiment [1], in experiment [2] and in experiment [3] was 10 to 100 nM each time.

`COc1cccc(C(=O)Nc2cncc(Nc3ccc(-c4ccc(C(=O)N(C)C)cc4)cn3)c2)c1` [Example 141, 4-(6-((5-(3-methoxybenzamido)pyridin-3-yl)amino)pyridin-3-yl)-N,N-dimethylbenzamide]: the IC50 in experiment [1] fell in the range of 10 to 100 nM; in experiment [2] it was 1 to 10 nM; in experiment [3], 10 to 100 nM.

With `COc1ccc(C(=O)Nc2cncc(Nc3ccc(-c4ccc(C(=O)N(C)C)cc4)cn3)c2)cc1` [Example 142, 4-(6-((5-(4-methoxybenzamido)pyridin-3-yl)amino)pyridin-3-yl)-N,N-dimethylbenzamide], the concentration for half-maximal inhibition (IC50) in experiment [1], in experiment [2] and in experiment [3] was 10 to 100 nM each time.

For `CN(C)C(=O)c1ccc(-c2ccc(Nc3cncc(NC(=O)c4cccc5[nH]ccc45)c3)nc2)cc1` [Example 143, N-(5-((5-(4-(dimethylcarbamoyl)phenyl)pyridin-2-yl)amino)pyridin-3-yl)-1H-indole-4-carboxamide], the half-maximal inhibitory concentration (IC50) in experiment [1] was in the range of 10 to 100 nM; in experiment [2], 1 to 10 nM; in experiment [3], 10 to 100 nM.

On to `CNC(=O)c1cccc2ncc(Nc3ccc(-c4ccc(N5CCCC5=O)cc4)cn3)cc12` [Example 146, N-methyl-3-((5-(4-(2-oxopyrrolidin-1-yl)phenyl)pyridin-2-yl)amino)quinoline-5-carboxamide], for which the half-inhibitory concentration (IC50) fell in the range of 10 to 100 nM in experiment [1], 100 to 1000 nM in experiment [2] and 10 to 100 nM in experiment [3].

For the molecule `CN(C)C(=O)c1cccc2ncc(Nc3ccc(-c4ccc(N5CCCC5=O)cc4)cn3)cc12` [Example 147, N,N-dimethyl-3-((5-(4-(2-oxopyrrolidin-1-yl)phenyl)pyridin-2-yl)amino)quinoline-5-carboxamide], the IC50 was 100 to 1000 nM in experiment [1], 100 to 1000 nM in experiment [2] and greater than 1000 nM in experiment [3].

Consider `O=C(c1cccc2ncc(Nc3ccc(-c4ccc(N5CCCC5=O)cc4)cn3)cc12)N1CCCC1` [Example 148, 1-(4-(6-((5-(pyrrolidine-1-carbonyl)quinolin-3-yl)amino)pyridin-3-yl)phenyl)pyrrolidin-2-one], for which the results for the 50% inhibitory concentration (IC50) in experiment [1], in experiment [2] and in experiment [3] were greater than 1000 nM, 100 to 1000 nM and greater than 1000 nM, respectively.

As for `O=C(c1cccc2ncc(Nc3ccc(-c4ccc(N5CCCC5=O)cc4)cn3)cc12)N1CCC(O)C1` (stereo not drawn) [Example 149, 1-(4-(6-((5-(3-hydroxypyrrolidine-1-carbonyl)quinolin-3-yl)amino)pyridin-3-yl)phenyl)pyrrolidin-2-one], the half-inhibitory concentration (IC50) in experiment [1] is greater than 1000 nM; in experiment [2], 100 to 1000 nM; in experiment [3], greater than 1000 nM.

`O=C1CCCN1c1ccc(-c2ccc(Nc3cnc4c(c3)N(C(=O)C3CC3)CCO4)nc2)cc1` [Example 150, 1-(4-(6-((1-(cyclopropanecarbonyl)-2,3-dihydro-1H-pyrido[2,3-b][1,4]oxazin-7-yl)amino)pyridin-3-yl)phenyl)pyrrolidin-2-one]: the half-inhibitory concentration (IC50) was 1 to 10 nM in experiment [1], 1 to 10 nM in experiment [2] and 10 to 100 nM in experiment [3].

Take `COC(=O)N1CCOc2ncc(Nc3ccc(-c4ccc(N5CCCC5=O)cc4)cn3)cc21` [Example 151, methyl 7-((5-(4-(2-oxopyrrolidin-1-yl)phenyl)pyridin-2-yl)amino)-2,3-dihydro-1H-pyrido[2,3-b][1,4]oxazine-1-carboxylate]: the concentration for half-maximal inhibition (IC50) in experiment [1] lay within 1 to 10 nM; in experiment [2], 1 to 10 nM; in experiment [3], 10 to 100 nM.

Turning to `CC(C)C(=O)N1CCOc2ncc(Nc3ccc(-c4ccc(N5CCCC5=O)cc4)cn3)cc21` [Example 152, 1-(4-(6-((1-isobutyryl-2,3-dihydro-1H-pyrido[2,3-b][1,4]oxazin-7-yl)amino)pyridin-3-yl)phenyl)pyrrolidin-2-one], the values for the IC50 in experiment [1], in experiment [2] and in experiment [3] were 10 to 100 nM, 1 to 10 nM and 10 to 100 nM, respectively.

For the molecule `CC(C)S(=O)(=O)N1CCOc2ncc(Nc3ccc(-c4ccc(N5CCCC5=O)cc4)cn3)cc21` [Example 153, 1-(4-(6-((1-(isopropylsulfonyl)-2,3-dihydro-1H-pyrido[2,3-b][1,4]oxazin-7-yl)amino)pyridin-3-yl)phenyl)pyrrolidin-2-one], the half-inhibitory concentration (IC50) in experiment [1] was in the range of 100 to 1000 nM; in experiment [2], 10 to 100 nM; in experiment [3], 10 to 100 nM.

`O=C1CCCN1c1ccc(-c2ccc(Nc3cnc4c(c3)N(S(=O)(=O)C3CC3)CCO4)nc2)cc1` [Example 154, 1-(4-(6-((1-(cyclopropylsulfonyl)-2,3-dihydro-1H-pyrido[2,3-b][1,4]oxazin-7-yl)amino)pyridin-3-yl)phenyl)pyrrolidin-2-one]: the half-inhibitory concentration (IC50) in experiment [1], in experiment [2] and in experiment [3] was 10 to 100 nM each time.

As for `CC(C)(C)C(=O)N1CCOc2ncc(Nc3ccc(-c4ccc(N5CCCC5=O)cc4)cn3)cc21` [Example 155, 1-(4-(6-((1-pivaloyl-2,3-dihydro-1H-pyrido[2,3-b][1,4]oxazin-7-yl)amino)pyridin-3-yl)phenyl)pyrrolidin-2-one], the results for the IC50 in experiment [1], in experiment [2] and in experiment [3] were 1 to 10 nM, 1 to 10 nM and 10 to 100 nM, respectively.

As for `CS(=O)(=O)N1CCOc2ncc(Nc3ccc(-c4ccc(N5CCCC5=O)cc4)cn3)cc21` [Example 156, 1-(4-(6-((1-(methylsulfonyl)-2,3-dihydro-1H-pyrido[2,3-b][1,4]oxazin-7-yl)amino)pyridin-3-yl)phenyl)pyrrolidin-2-one], the 50% inhibitory concentration (IC50) in experiment [1] lay in the range of 10 to 100 nM; in experiment [2] it was 1 to 10 nM; in experiment [3], 10 to 100 nM.

With `CN(c1cncc(Nc2ccc(-c3ccc(N4CCCC4=O)cc3)cn2)c1)S(C)(=O)=O` [Example 157, N-methyl-N-(5-((5-(4-(2-oxopyrrolidin-1-yl)phenyl)pyridin-2-yl)amino)pyridin-3-yl)methanesulfonamide], the concentration for half-maximal inhibition (IC50) in experiment [1], in experiment [2] and in experiment [3] was 10 to 100 nM throughout.

On to `COc1ncc(Nc2ccc(-c3ccc(N4CCCC4=O)cc3)cn2)cc1NC(C)=O` [Example 158, N-(2-methoxy-5-((5-(4-(2-oxopyrrolidin-1-yl)phenyl)pyridin-2-yl)amino)pyridin-3-yl)acetamide], for which the half-inhibitory concentration (IC50) in experiment [1] fell in the range of 100 to 1000 nM; in experiment [2] it was 100 to 1000 nM; in experiment [3], 10 to 100 nM.

As for `COc1ncc(Nc2ccc(-c3ccc(N4CCCC4=O)cc3)cn2)cc1NS(C)(=O)=O` [Example 159, N-(2-methoxy-5-((5-(4-(2-oxopyrrolidin-1-yl)phenyl)pyridin-2-yl)amino)pyridin-3-yl)methanesulfonamide], the values for the IC50 in experiment [1], in experiment [2] and in experiment [3] were 100 to 1000 nM, 10 to 100 nM and 10 to 100 nM, respectively.

Broadly, the IC50 is the concentration that gives 50% inhibition.
